{"source": "patent US20180140679A1", "about": "“MODULATION OF AXL RECEPTOR ACTIVITY IN COMBINATION WITH CYTOREDUCTIVE THERAPY” (THE BOARD OF TRUSTEES OF THE LELAND STANFORD JUNIOR …, priority 2016, published 2018)", "key": {"[1]": {"tested_on": "4T1 luciferase cells", "assay_type": "in vivo", "details": "MYD1-72 Fc 1 mg/kg daily, TKIs 12.5 mg/kg twice daily; for reduction in lung metastases compared to vehicle treated mice: ex vivo bioluminescent imaging; for size of primary tumors: three weeks, vs control", "source_text": "In this model, cells orthotopically implanted in the mammary fat pad generate primary masses that metastasize to the lungs.\nComparison of MYD1-72 Fc with clinical Axl. TKIs There are currently no FDA approved drugs targeting Axl, though several small molecule kinase inhibitors are undergoing clinical trials. BerGenBio's BGB324 (previously Rigel's R428) is the most advanced of these compounds, and the first to be developed prospectively as an Axl inhibitor. […] Furthermore, since TKI's and biologics are fundamentally very different, as are their mechanisms of action, a direct comparison would provide valuable insights into the potential of distinct therapeutic intervention strategies. […] Cells were implanted orthotopically in the mammary fat pad, and primary tumors were allowed to establish prior to treatment. […] This dose for the TKIs was chosen as significant activity has been previously reported at equivalent concentrations.\n(§1) Treatment was initiated four days post-surgery."}, "[2]": {"tested_on": "phosphorylation of Axl, Mer, Tyro3, and downstream Akt signaling in OVCAR8 cells", "experiment": "Western blot of TAM receptor and Akt phosphorylation in OVCAR8 cells", "assay_type": "cell-based, human", "source_text": "(§2) Cell lysates subjected to sodium dodecyl sulfate polyacrylamide gel electrophoresis followed by transfer to nitrocellulose membrane. The membranes were then probed with primary antibodies against total Axl (AF154, R&D Systems, INC., Minneapolis, Minn.), phospho-Axl (T702; #5724, CST, Danvers, Mass.), total Akt (#4691 CST, Danvers, Mass.), phosphor-Akt (#4060, CST, Danvers, Mass.), anti-MERTK (#ab52968, Abcam, Cambridge, Mass.), phospho-MERTK (#ab14921 Abcam, Cambridge, Mass.), anti-Tyro3 (#5585, CST, Danvers, Mass.), phospho-Tyro3 (#orb186274, Biorbyt LLC, Berkely, Calif.), Bcl-2 Family Antibody Sampler Kit (#9934, CST, Danvers, Mass.), anti-Chk2 (#sc-5278, Santa Cruz Biotech, INC., Santa Cruz, Calif.), anti-XRCC1 (#2735, CST, Danvers, Mass.), anti-γH2AX (Merck Millipore #05636, Darmstadt, Germany), anti-phospho-ATM (#ab81292, Abcam, Cambridge, Mass.), anti-ATM (#ab78, Abcam, Cambridge, Mass.), anti phospho-ATR (#2853, CST, Danvers, Mass.), anti-ATR (#2790, CST, Danvers, Mass.), anti-Phospho Chk1 (#12302, CST, Danvers, Mass.), anti-Phospho Chk2 (#2197, CST, Danvers, Mass.) and anti-RPA32 (#2208, CST, Danvers, Mass.) at 4° C. overnight. The blots were then washed and probed with HRP conjugated anti-goat (#sc-2020, Santa Cruz Biotech, INC., Santa Cruz, Calif.), or HRP conjugated anti-rabbit (#A16110, Thermo Fisher Scientific, Walthan, Mass.) as appropriate. The blots were developed with Bio-Rad Western C developing reagent (#170-5060 Bio-Rad, Hercules, Calif.) and visualized with Chemidoc digital imager (#1708280, Bio-Rad, Hercules, Calif.)."}, "[3]": {"tested_on": "patients", "details": "recent phase II trial; cited from earlier work"}, "[4]": {"tested_on": "LM-P orthotopic pancreatic cancer", "experiment": "LM-P orthotopic pancreatic cancer model", "details": "immunohistochemistry", "description": "LMP cells derived from the KRAS/p53 metastatic mouse model were implanted subcutaneously into the flanks of mice and allowed to grow until they reached ˜500 mm^3 in size.\nTo establish orthotopic tumors, mice harboring subcutaneous tumors were sacrificed and tumors were isolated and cut into small fragments. Laparotomies were then performed and a tumor fragment was secured to the tail of the pancreas.\nAll procedures involving animals and their care and use were approved by the Institutional Animal Care and Usage Committee of Stanford University. For all in vivo studies, six week old, female nude (nu/nu) mice (Jackson Laboratory, Bar Harbor, Me.) were used. In all studies, animals displaying signs of morbidity were removed from the study immediately. […] Treatment was initiated four days post-inoculation for both studies. […] BGB324 (Selleckchem LLC, Houston, Tex.) and Foretinib (MedChem, Monmouth Junction, N.J.). Small molecules were administered twice daily via oral gavage. […] The orthotropic LM-P pancreatic adenocarcinoma model (a gift from Dr. Edgar Engleman at Stanford University, Stanford, Calif.) was established as previously described. Briefly, 1×10^6 cells were injected subcutaneously into the flanks of nude mice and grown for 2-3 weeks until they reached 500 mm^3. […]"}, "[5]": {"tested_on": "skov3.ip", "experiment": "skov3.ip intraperitoneal ovarian cancer model", "assay_type": "in vivo, mouse xenograft", "details": "MYD1-72 Fc 1 mg/kg daily, doxorubicin 2 mg/kg twice weekly, three weeks", "source_text": "At this time, several mice were sacrificed at random to ensure engraftment of diffuse metastatic disease, a hallmark of the human condition. […] After three weeks of treatment, mice were sacrificed and tumor burden was quantified both by counting the number of visible lesions, as well as excising and weighing all diseased tissue.\nas §1"}, "[6]": {"tested_on": "Axl and FLT3 phosphorylation in AML cells", "experiment": "Western blot of Axl and FLT3 phosphorylation in AML cells", "assay_type": "cell-based, human", "source_text": "as §2"}, "[7]": {"target": "T1, mouse Gas6 (mouse, UniProt Q61592 115-674, limits assumed)", "T1 construct": "Recombinant in KinExA (detected through a 6xHIS tag); also called mGas6", "T1 sequence (looked up)": "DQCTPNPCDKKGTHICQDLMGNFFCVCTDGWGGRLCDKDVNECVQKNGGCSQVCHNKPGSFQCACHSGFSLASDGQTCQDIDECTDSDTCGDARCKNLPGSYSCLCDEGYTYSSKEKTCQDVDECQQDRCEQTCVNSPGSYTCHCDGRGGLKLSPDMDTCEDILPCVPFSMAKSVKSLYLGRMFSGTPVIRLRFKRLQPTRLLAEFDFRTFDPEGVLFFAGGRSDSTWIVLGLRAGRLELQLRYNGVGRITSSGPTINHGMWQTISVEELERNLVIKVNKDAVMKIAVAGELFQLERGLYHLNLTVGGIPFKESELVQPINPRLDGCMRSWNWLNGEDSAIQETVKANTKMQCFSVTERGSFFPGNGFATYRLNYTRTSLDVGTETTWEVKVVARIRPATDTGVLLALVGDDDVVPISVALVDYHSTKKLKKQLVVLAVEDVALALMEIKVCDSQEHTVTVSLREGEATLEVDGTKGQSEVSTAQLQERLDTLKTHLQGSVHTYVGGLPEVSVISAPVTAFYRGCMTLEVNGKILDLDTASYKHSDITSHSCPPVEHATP", "experiment": "KinExA equilibrium titration in solution, apparent Kd of the dimeric Fc fusion"}}}
{"molecule": "Nc1nc(Nc2ccc3c(c2)CC[C@@H](N2CCCC2)CC3)nn1-c1cc2c(nn1)-c1ccccc1CCC2", "note": "[BGB324, reference compound]", "values": [{"measurement": "reduction in lung metastases compared to vehicle treated mice", "setting": "[1]", "value": 10, "unit": "%"}, {"measurement": "size of primary tumors", "setting": "[1]", "value": "showed little effects"}, {"measurement": "pAxl and pAkt levels", "setting": "[2]", "value": "short-term inhibition of pAxl but increased pAxl levels at later time points"}]}
{"molecule": "COc1cc2c(Oc3ccc(NC(=O)C4(C(=O)Nc5ccc(F)cc5)CC4)cc3F)ccnc2cc1OCCCN1CCOCC1", "note": "[Foretinib]", "values": [{"measurement": "reduction in lung metastases compared to vehicle treated mice", "setting": "[1]", "value": 55, "unit": "%"}, {"measurement": "size of primary tumors", "setting": "[1]", "value": "significantly reduced the size of primary tumors"}, {"measurement": "pAxl and pAkt levels", "setting": "[2]", "value": "indiscriminately inhibited all TAM receptors"}, {"measurement": "pMer and pTyro3 levels", "setting": "[2]", "value": "indiscriminately inhibited all TAM receptors"}, {"measurement": "clinical efficacy", "setting": "[3]", "value": "failed to demonstrate efficacy"}, {"measurement": "patients with treatment-related adverse events", "setting": "[3]", "value": 91, "unit": "%"}]}
{"molecule": "Nc1ccn([C@@H]2O[C@H](CO)[C@@H](O)C2(F)F)c(=O)n1", "note": "[Gemcitabine, reference compound]", "values": [{"measurement": "Ki67 proliferation in primary tumor", "setting": "[4]", "value": "small, albeit significant decrease in proliferation"}]}
{"molecule": "COc1cccc2c1C(=O)c1c(O)c3c(c(O)c1C2=O)C[C@@](O)(C(=O)CO)C[C@@H]3O[C@H]1C[C@H](N)[C@H](O)[C@H](C)O1", "note": "[doxorubicin, reference compound]", "values": [{"measurement": "decrease in tumor burden (by weight) vs controls", "setting": "[5]", "value": 91, "unit": "%"}]}
{"molecule": "wildtype Axl Fc: wild-type Axl decoy receptor as Fc fusion", "values": [{"measurement": "Axl and FLT3 phosphorylation", "setting": "[6]", "value": "inhibited Axl and FLT3 phosphorylation"}]}
{"molecule": "MYD1-Fc (Fc fusion, Dimeric Fc fusion made in HEK293; MYD1 mutations deduced as MYD1-72 minus A72V; not shown: Fc domain) APRGTQAEESPFVSNPGNITGARGLTGTLRCQLQVQGEPPEVHWLRDGQILELADSTQTQVPLGEDEQGDWIVASQLRITSLQLSDTGQYQCLVFLGHQTFVSQPGYVRLEGLPYFLEEPEDRTVAANTPFNLSCQAQGPPEPVDLLWLQDAVPLATAPGHGPQRSLHVPGLNKTSSFSCEAHNAKGVTTSRTATITVLPQQPRNLHLVSRQPTELEVAWTPGLSGIYPLTHCTLQAVLSNDGMGIQAGEPDPPEEPLTSQASVPPHQLRLGSLHPHTPYHIRVACTSSQGPSSWTHWLPVETPEGVPLGPPENISATRNGSQAFVHWQEPRAPLQGTLLGYRLAYQGQDTPEVLMDIGLRQEVTLELQGDGSVSNLTVCVAAYTAAGDGPWSLPVPLEAWRPGQAQPVHQLVKEPSTPAFS", "values": [{"measurement": "Kd", "setting": "[7]", "value": 1.1, "unit": "pM"}]}
{"molecule": "MYD1-72 Fc (Fc fusion, Dimeric Fc fusion made in HEK293; also called MYD-72 Fc; second generation Axl decoy receptor; not shown: Fc domain) APRGTQAEESPFVSNPGNITGARGLTGTLRCQLQVQGEPPEVHWLRDGQILELVDSTQTQVPLGEDEQGDWIVASQLRITSLQLSDTGQYQCLVFLGHQTFVSQPGYVRLEGLPYFLEEPEDRTVAANTPFNLSCQAQGPPEPVDLLWLQDAVPLATAPGHGPQRSLHVPGLNKTSSFSCEAHNAKGVTTSRTATITVLPQQPRNLHLVSRQPTELEVAWTPGLSGIYPLTHCTLQAVLSNDGMGIQAGEPDPPEEPLTSQASVPPHQLRLGSLHPHTPYHIRVACTSSQGPSSWTHWLPVETPEGVPLGPPENISATRNGSQAFVHWQEPRAPLQGTLLGYRLAYQGQDTPEVLMDIGLRQEVTLELQGDGSVSNLTVCVAAYTAAGDGPWSLPVPLEAWRPGQAQPVHQLVKEPSTPAFS", "values": [{"measurement": "Kd", "setting": "[7]", "value": 0.14, "unit": "pM"}]}
